Values joined by “and” are separate entries in the source; they are usually repeats but may differ in a detail not shown here. Equal entries are not always repeated.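 Where inhibition never reached the appropriate level, the endpoint shown equals the highest concentration tested. Otherwise, values were interpolated linearly from a five-concentration, 48-hour dose response in 96-well plates. Here, GI50 denotes the concentration required for 50% inhibition of growth. TGI: total growth inhibition.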
Key:
Assay in all cases: inhibition of tumour cell growth, NCI panel, 48 h
A498 renal = tested on: A498 renal
UO-31 renal = tested on: UO-31 renal
XF 498 CNS = tested on: XF 498 CNS
DMS 273 small cell lung = tested on: DMS 273 small cell lung
DLD-1 colon = tested on: DLD-1 colon
LXFL 529 NSCLC = tested on: LXFL 529 NSCLC
KM20L2 colon = tested on: KM20L2 colon
M19-MEL melanoma = tested on: M19-MEL melanoma
SNB-78 CNS = tested on: SNB-78 CNS
DMS 114 small cell lung = tested on: DMS 114 small cell lung
HOP-18 NSCLC = tested on: HOP-18 NSCLC

## CCOC(=O)c1c(NC(=O)c2ccc(Br)cc2)sc2c1CCCC2
A498 renal
  TGI: > 100 µM
UO-31 renal
  TGI: > 100 µM

## Cc1ccc(N2C(=O)C(=O)N(/N=C3\C(=O)Nc4ccccc43)C2=S)cc1
A498 renal
  TGI: > 100 µM
UO-31 renal
  TGI: > 100 µM

## CC1=C(C)C(=O)C(C2=C(C3=CC(=O)C(C)=C(C)C3=O)C(=O)c3ccccc3C2=O)=CC1=O
A498 renal
  TGI: 18.4 µM
UO-31 renal
  TGI: 4.95 µM

## Cn1c(=O)sc2cc(C(=S)N3CCN(c4ccccc4)CC3)ccc21
A498 renal
  TGI: > 100 µM

## Cc1cc(C(O)CNC(C)CCn2cnc3c2c(=O)n(C)c(=O)n3C)ccc1O (stereo not given)
A498 renal
  TGI: > 100 µM
UO-31 renal
  TGI: > 100 µM

## COC(=O)CCC1(O)C=CC(=O)C=C1
A498 renal
  TGI: > 100 µM
UO-31 renal
  TGI: > 100 µM

## COc1nc(C)nc2c1ncn2Cc1ccccc1
A498 renal
  TGI: > 100 µM

## CCSC12CC3c4cccc5c4C(CN5C(=O)c4ccccc4)CC3(O1)N(C)C2=O (stereo not given)
A498 renal
  TGI: > 100 µM
UO-31 renal
  TGI: > 100 µM

## Cc1cc(-c2ccc(C(=O)C(c3ccccc3)(c3ccccc3)c3ccccc3)[nH]2)on1
A498 renal
  TGI: > 100 µM
UO-31 renal
  TGI: 30.2 µM

## CC(=O)C1C(=O)C(=O)N(c2ccc(Br)cc2)C1=O (stereo not given)
UO-31 renal
  TGI: > 100 µM

## O=C1C(NS(=O)(=O)c2ccccc2)=C(N(Cc2ccccc2)Cc2ccccc2)C(=O)c2ccccc21
UO-31 renal
  TGI: 51.3 µM

## CN(C)Cc1[nH]c2ccccc2c1C(=O)c1ccccc1
XF 498 CNS
  TGI: > 100 µM
DMS 273 small cell lung
  TGI: > 100 µM
DLD-1 colon
  TGI: > 100 µM
LXFL 529 NSCLC
  TGI: > 100 µM
UO-31 renal
  TGI: > 100 µM
KM20L2 colon
  TGI: > 100 µM

## COc1ccc(C2C(Cl)C(=O)N2NC(=O)c2ccccc2O)cc1OC (stereo not given)
XF 498 CNS
  TGI: 47.7 µM
DMS 273 small cell lung
  TGI: > 100 µM
A498 renal
  TGI: > 100 µM
M19-MEL melanoma
  TGI: > 100 µM
SNB-78 CNS
  TGI: > 100 µM
DLD-1 colon
  TGI: > 100 µM
DMS 114 small cell lung
  TGI: > 100 µM
UO-31 renal
  TGI: > 100 µM

## O=c1c(Sc2ncccn2)c(Sc2ncccn2)cnn1CCl
A498 renal
  TGI: 36.3 µM
UO-31 renal
  TGI: 3.45 µM

## CC(C)(C)N=c1n(C(C)(C)C)oc(=O)n1-c1ccccc1
A498 renal
  TGI: > 50 µM
UO-31 renal
  TGI: > 50 µM

## CN(C)C(=O)Oc1ccc(C(=S)Nc2ccccc2)cc1Br
UO-31 renal
  TGI: > 100 µM

## N#Cc1c(N2CCOCC2)ncn(-c2ccc(Cl)cc2)c1=O
A498 renal
  TGI: > 100 µM
UO-31 renal
  TGI: > 100 µM

## c1cc(C[S+]2CCCC2)oc1C[S+]1CCCC1
A498 renal
  TGI: > 100 µM
UO-31 renal
  TGI: > 100 µM

## CC(=O)O/N=C/c1cc2c(cc1Br)OCO2
XF 498 CNS
  TGI: > 349 µM
DMS 273 small cell lung
  TGI: > 349 µM
M19-MEL melanoma
  TGI: > 349 µM
DLD-1 colon
  TGI: > 349 µM
DMS 114 small cell lung
  TGI: > 349 µM
LXFL 529 NSCLC
  TGI: > 349 µM
KM20L2 colon
  TGI: > 349 µM

## CC#Cc1c(C#CC)c(OC)c2c(c1OC)C(=O)c1ccccc1C2=O
XF 498 CNS
  TGI: > 100 µM
DMS 273 small cell lung
  TGI: > 100 µM
A498 renal
  TGI: > 100 µM
M19-MEL melanoma
  TGI: > 100 µM
DLD-1 colon
  TGI: > 100 µM
DMS 114 small cell lung
  TGI: 89 µM
LXFL 529 NSCLC
  TGI: > 100 µM
UO-31 renal
  TGI: > 100 µM
KM20L2 colon
  TGI: > 100 µM

## COC(=O)[C@@H]1[C@H](O)CC[C@H]2[C@@]1(C)CC[C@@H](C)[C@]2(COC(C)=O)CC(=O)c1ccoc1
A498 renal
  TGI: > 50 µM
UO-31 renal
  TGI: > 50 µM

## Cc1ccc(F)c2c(=O)cc(-c3ccccc3)[nH]c12
DMS 273 small cell lung
  TGI: > 100 µM
M19-MEL melanoma
  TGI: > 100 µM
DLD-1 colon
  TGI: > 100 µM
DMS 114 small cell lung
  TGI: > 100 µM
LXFL 529 NSCLC
  TGI: > 100 µM
UO-31 renal
  TGI: > 100 µM
HOP-18 NSCLC
  TGI: > 100 µM

## CC1(C)N=C(Oc2ccccc2)n2nccc2N1
XF 498 CNS
  TGI: > 100 µM
DMS 273 small cell lung
  TGI: > 100 µM
A498 renal
  TGI: > 100 µM
M19-MEL melanoma
  TGI: > 100 µM
DLD-1 colon
  TGI: > 100 µM
DMS 114 small cell lung
  TGI: > 100 µM
LXFL 529 NSCLC
  TGI: > 100 µM
UO-31 renal
  TGI: > 100 µM
KM20L2 colon
  TGI: > 100 µM
HOP-18 NSCLC
  TGI: > 100 µM

## Cc1ccc(-n2cc(-c3ccc(Cl)cc3)c3c2N=CN2NC(c4cccs4)=NC32)cc1 (stereo not given)
A498 renal
  TGI: 35.9 µM
UO-31 renal
  TGI: 27.7 µM

## CCOP(=O)(OCC)C(=C1C=C(C(C)(C)C)C(=O)C(C(C)(C)C)=C1)P(=O)(OCC)OCC
A498 renal
  TGI: > 10 µM
UO-31 renal
  TGI: > 10 µM

## Cc1cn2c(/C=C3/C(=O)Nc4ccccc43)c(C)nc2s1
A498 renal
  TGI: > 100 µM
UO-31 renal
  TGI: 61.4 µM

## CC(=O)Oc1cc(S(=O)(=O)Nc2n[nH]c(N)n2)c(S)cc1Cl
A498 renal
  TGI: > 100 µM
UO-31 renal
  TGI: > 100 µM

## COC(=O)C1=NN2c3ccccc3CN([C@@H](C)c3ccccc3)C(=O)[C@H]2[C@@H]1C
A498 renal
  TGI: > 100 µM
UO-31 renal
  TGI: > 100 µM

## Cc1ccc(Nc2cn(COCc3ccccc3)c(=O)[nH]c2=O)cc1
A498 renal
  TGI: > 100 µM
UO-31 renal
  TGI: > 100 µM

## C=CC[C@H]1[C@H](O[Si](C)(C)C(C)(C)C)C=CC(=O)[C@@H]1CC(=O)OCC
A498 renal
  TGI: 26.6 µM
UO-31 renal
  TGI: 25.6 µM

## Oc1ccc(Cn2c(-c3ccc(O)cc3)nc3ccccc32)cc1
XF 498 CNS
  TGI: > 100 µM
DMS 273 small cell lung
  TGI: > 100 µM
A498 renal
  TGI: > 100 µM
M19-MEL melanoma
  TGI: > 100 µM
DLD-1 colon
  TGI: > 100 µM
DMS 114 small cell lung
  TGI: > 100 µM
LXFL 529 NSCLC
  TGI: > 100 µM
UO-31 renal
  TGI: > 100 µM
KM20L2 colon
  TGI: > 100 µM

## Cc1cc(C#N)c(Nc2ccccc2[N+](=O)[O-])s1
A498 renal
  TGI: > 100 µM
UO-31 renal
  TGI: > 100 µM

## O=C1c2ccccc2C(=O)c2c(O)c(NCCNCCO)cc(O)c21
XF 498 CNS
  TGI: 19 µM
DMS 273 small cell lung
  TGI: 12 µM
A498 renal
  TGI: 21 µM
M19-MEL melanoma
  TGI: 15.2 µM
SNB-78 CNS
  TGI: 18.7 µM
DLD-1 colon
  TGI: 11.1 µM
DMS 114 small cell lung
  TGI: 16.1 µM
LXFL 529 NSCLC
  TGI: 18.1 µM
UO-31 renal
  TGI: 11.7 µM
KM20L2 colon
  TGI: 16.1 µM
HOP-18 NSCLC
  TGI: 18.8 µM

## Cc1nc(Nc2nc3ccccc3[nH]2)[nH]c(=O)c1CCO
A498 renal
  TGI: > 100 µM
UO-31 renal
  TGI: > 100 µM

## C(=N/NC1=NCCN1)/c1c2ccccc2c(/C=N\NC2=NCCN2)c2ccccc12
XF 498 CNS
  GI50: 0.0524 µM
  TGI: 0.372 µM and 0.298 µM
DMS 273 small cell lung
  GI50: 0.0504 µM
A498 renal
  TGI: 0.273 µM and 1.8 µM and 2.3 µM
M19-MEL melanoma
  GI50: 0.0605 µM
  TGI: 0.355 µM and 0.258 µM
SNB-78 CNS
  GI50: 0.368 µM
  TGI: 3.83 µM and 9.8 µM
DLD-1 colon
  GI50: 1.32 µM
  TGI: 27.9 µM and 250 µM
DMS 114 small cell lung
  GI50: 0.0491 µM and 0.0606 µM
  TGI: 0.603 µM and 0.421 µM
KM20L2 colon
  GI50: 0.0553 µM
  TGI: 2.16 µM and 1.22 µM
HOP-18 NSCLC
  GI50: 0.282 µM
  TGI: 0.888 µM and 1.5 µM
